Laboratory results taken from US8198273B2, “Compounds and methods for kinase modulation, and indications therefor” (Plexxikon Inc., priority 2009, dated 2012).

Columns and labels:
[1] = system: SW620 colon adenocarcinoma cells (wild-type B-RAF); assay: SW620 cell growth inhibition (ATPlite); type: cell-based; details: Homo sapiens, SW-620, 72 h; SW620, 3 days incubation
Method in brief: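 ATPlite luminescence, taken as a cell-number measure, gave IC50 values after a 3-day 37° C, 5% CO2 incubation. Compounds were tested as 8-point threefold titrations, highest final concentration 10 μM, added to cells seeded the day before.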

[2] = molecular target: T1, CYP1A2 (Homo sapiens, UniProt P05177); assay: CYP1A2 inhibition (fluorescent substrate); type: in vitro ADME; details: CYP1A2, CEC substrate; read-out: Cyp IC50 1A2
T1 sequence (P05177 1-516): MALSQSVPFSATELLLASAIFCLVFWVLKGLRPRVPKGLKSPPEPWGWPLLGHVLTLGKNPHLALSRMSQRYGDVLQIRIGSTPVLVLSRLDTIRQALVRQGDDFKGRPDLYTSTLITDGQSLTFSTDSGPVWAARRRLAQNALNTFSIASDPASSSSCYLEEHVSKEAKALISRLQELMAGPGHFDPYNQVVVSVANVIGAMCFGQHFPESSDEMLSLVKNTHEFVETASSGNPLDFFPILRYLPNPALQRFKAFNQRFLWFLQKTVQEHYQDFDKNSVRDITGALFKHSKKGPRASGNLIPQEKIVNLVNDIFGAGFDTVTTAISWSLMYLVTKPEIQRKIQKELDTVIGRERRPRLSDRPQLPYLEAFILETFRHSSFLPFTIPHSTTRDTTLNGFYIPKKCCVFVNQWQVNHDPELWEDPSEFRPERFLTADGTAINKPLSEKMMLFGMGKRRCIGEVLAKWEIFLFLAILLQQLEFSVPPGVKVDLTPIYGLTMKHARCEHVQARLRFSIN
Method in brief: (§1)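 10-pt 1:1 serial dilution in co-factor mix (DMSO stock 100 mM); 10 min preincubation, 37 °C; reaction at 37 °C. Readout: fluorescent metabolite of probe substrate. IC50 from signal vs [compound].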

[3] = molecular target: CYP2C19 (Homo sapiens, UniProt P33261); assay: CYP2C19 inhibition (fluorescent substrate); type: in vitro ADME; details: CYP2C19, CEC substrate; read-out: Cyp IC50 2C19
Method in brief: as §1

[4] = molecular target: CYP2C9 (Homo sapiens, UniProt P11712); assay: CYP2C9 inhibition (fluorescent substrate); type: in vitro ADME; details: CYP2C9, MFC substrate; read-out: Cyp IC50 2C9
Method in brief: as §1

[5] = molecular target: CYP2D6 (Homo sapiens, UniProt P10635); assay: CYP2D6 inhibition (fluorescent substrate); type: in vitro ADME; details: CYP2D6, AMMC substrate; read-out: Cyp IC50 2D6
Method in brief: as §1

CYP2C9, sequence (P11712 whole entry): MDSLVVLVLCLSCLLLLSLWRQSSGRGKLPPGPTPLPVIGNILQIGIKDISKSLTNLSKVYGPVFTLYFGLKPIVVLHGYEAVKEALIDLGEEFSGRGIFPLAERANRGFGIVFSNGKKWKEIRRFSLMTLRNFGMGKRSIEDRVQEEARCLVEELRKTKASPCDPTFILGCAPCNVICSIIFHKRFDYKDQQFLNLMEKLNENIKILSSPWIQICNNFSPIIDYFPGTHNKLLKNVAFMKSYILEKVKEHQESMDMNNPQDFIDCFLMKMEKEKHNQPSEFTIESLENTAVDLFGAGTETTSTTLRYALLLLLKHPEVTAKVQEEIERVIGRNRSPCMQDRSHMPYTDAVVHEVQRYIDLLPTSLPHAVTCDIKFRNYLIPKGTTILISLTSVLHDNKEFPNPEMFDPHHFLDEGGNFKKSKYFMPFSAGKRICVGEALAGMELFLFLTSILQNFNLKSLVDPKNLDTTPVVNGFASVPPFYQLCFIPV
CYP2D6, sequence (P10635 whole entry): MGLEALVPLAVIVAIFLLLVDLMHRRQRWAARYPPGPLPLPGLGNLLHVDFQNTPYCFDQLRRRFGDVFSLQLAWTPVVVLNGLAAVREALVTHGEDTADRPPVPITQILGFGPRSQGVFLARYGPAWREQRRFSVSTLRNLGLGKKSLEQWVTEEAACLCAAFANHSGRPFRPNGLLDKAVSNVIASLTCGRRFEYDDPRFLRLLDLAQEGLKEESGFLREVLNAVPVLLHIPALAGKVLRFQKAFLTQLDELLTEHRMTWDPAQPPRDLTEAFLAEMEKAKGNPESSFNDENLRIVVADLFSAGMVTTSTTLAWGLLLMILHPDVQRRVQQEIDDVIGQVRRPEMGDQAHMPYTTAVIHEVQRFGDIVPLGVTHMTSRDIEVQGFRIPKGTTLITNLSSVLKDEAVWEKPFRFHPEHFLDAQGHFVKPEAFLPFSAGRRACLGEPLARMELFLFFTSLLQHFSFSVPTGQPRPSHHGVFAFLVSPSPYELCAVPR
CYP2C19, sequence (P33261 whole entry): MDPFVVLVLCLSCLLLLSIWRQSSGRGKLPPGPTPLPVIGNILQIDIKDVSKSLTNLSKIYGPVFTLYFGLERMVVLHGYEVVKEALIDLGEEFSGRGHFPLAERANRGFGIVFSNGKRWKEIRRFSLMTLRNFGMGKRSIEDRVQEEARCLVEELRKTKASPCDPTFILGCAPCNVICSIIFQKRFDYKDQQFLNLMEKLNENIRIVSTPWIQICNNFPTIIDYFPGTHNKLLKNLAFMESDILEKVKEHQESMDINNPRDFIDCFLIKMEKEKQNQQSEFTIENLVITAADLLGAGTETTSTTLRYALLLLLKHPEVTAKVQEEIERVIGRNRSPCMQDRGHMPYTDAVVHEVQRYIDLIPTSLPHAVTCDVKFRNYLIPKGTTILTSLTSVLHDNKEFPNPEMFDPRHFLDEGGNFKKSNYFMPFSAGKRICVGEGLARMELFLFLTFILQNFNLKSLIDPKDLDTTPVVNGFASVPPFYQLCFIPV

| Compound | IC50 [1] | IC50 [2] | IC50 [3] | IC50 [4] | IC50 [5] |
| --- | --- | --- | --- | --- | --- |
| O=C(c1c(F)ccc(NS(=O)(=O)c2cccc(F)c2)c1F)c1c[nH]c2nccc(Cl)c12 [P-2019, N-[3-(4-Chloro-1H-pyrrolo[2,3-b]pyridine-3-carbonyl)-2,4-difluoro-phenyl]-3-fluoro-benzenesulfonamide] | > 10 µM | > 10 µM | > 10 µM | > 10 µM | > 10 µM |
| COc1cnc2[nH]cc(C(=O)c3c(F)ccc(NS(=O)(=O)c4ccccc4F)c3F)c2c1 [P-2009, N-[2,4-Difluoro-3-(5-methoxy-1H-pyrrolo[2,3-b]pyridine-3-carbonyl)-phenyl]-2-fluoro-benzenesulfonamide] | > 10 µM | > 10 µM | > 10 µM | > 10 µM | > 10 µM |
| CCCS(=O)(=O)Nc1ccc(F)c(C(=O)c2c[nH]c3ncc(-c4cnc(N(C)C)nc4)cc23)c1F [P-2196, Propane-1-sulfonic acid {3-[5-(2-dimethylamino-pyrimidin-5-yl)-1H-pyrrolo[2,3-b]pyridine-3-carbonyl]-2,4-difluoro-phenyl}-amide] | > 10 µM | > 10 µM | > 10 µM | 5 to 10 µM | > 10 µM |
| N#Cc1ccnc2[nH]cc(C(=O)c3c(F)ccc(NS(=O)(=O)c4c(F)cccc4F)c3F)c12 [P-2037, N-[3-(4-Cyano-1H-pyrrolo[2,3-b]pyridine-3-carbonyl)-2,4-difluoro-phenyl]-2,6-difluoro-benzenesulfonamide] | > 10 µM | > 10 µM | > 10 µM | > 10 µM | > 10 µM |
| N#Cc1ccnc2[nH]cc(C(=O)c3c(F)ccc(NS(=O)(=O)c4ccccc4F)c3F)c12 [P-2020, N-[3-(4-Cyano-1H-pyrrolo[2,3-b]pyridine-3-carbonyl)-2,4-difluoro-phenyl]-2-fluoro-benzenesulfonamide] | > 10 µM | > 10 µM | > 10 µM | > 10 µM | > 10 µM |
| CCCS(=O)(=O)Nc1ccc(F)c(C(=O)c2c[nH]c3ncc(-c4cncnc4)cc23)c1F [P-2162, Propane-1-sulfonic acid [2,4-difluoro-3-(5-pyrimidin-5-yl-1H-pyrrolo[2,3-b]pyridine-3-carbonyl)-phenyl]-amide] | > 10 µM | < 5 µM | > 10 µM | 5 to 10 µM | > 10 µM |
| CCCS(=O)(=O)Nc1ccc(F)c(C(=O)c2c[nH]c3ncc(-c4ccc(S(C)(=O)=O)cc4)cc23)c1F [P-2183, Propane-1-sulfonic acid {2,4-difluoro-3-[5-(4-methanesulfonyl-phenyl)-1H-pyrrolo[2,3-b]pyridine-3-carbonyl]-phenyl}-amide] | < 20 µM | > 10 µM | 5 to 10 µM | 5 to 10 µM | > 10 µM |

The next lines start with the values.

| IC50 [1] | IC50 [2] | IC50 [3] | IC50 [4] | IC50 [5] | Compound |
| --- | --- | --- | --- | --- | --- |
| > 10 µM | > 10 µM | > 10 µM | > 10 µM | > 10 µM | COc1ccnc2[nH]cc(C(=O)c3c(F)ccc(NS(=O)(=O)c4ccccc4F)c3F)c12 [P-2021, N-[2,4-Difluoro-3-(4-methoxy-1H-pyrrolo[2,3-b]pyridine-3-carbonyl)-phenyl]-2-fluoro-benzenesulfonamide] |
| < 5 µM | > 10 µM | 5 to 10 µM | < 5 µM | > 10 µM | CCCS(=O)(=O)Nc1ccc(F)c(C(=O)c2c[nH]c3ncc(-c4ccc(S(=O)(=O)NC5CC5)cc4)cc23)c1F [P-2168, N-Cyclopropyl-4-{3-[2,6-difluoro-3-(propane-1-sulfonylamino)-benzoyl]-1H-pyrrolo[2,3-b]pyridin-5-yl}-benzenesulfonamide] |
| < 5 µM | > 10 µM | < 5 µM | < 5 µM | > 10 µM | N#Cc1cnc2[nH]cc(C(=O)c3c(F)ccc(NS(=O)(=O)c4ccccc4)c3F)c2c1 [P-2046, N-[3-(5-Cyano-1H-pyrrolo[2,3-b]pyridine-3-carbonyl)-2,4-difluoro-phenyl]-benzenesulfonamide] |
| > 10 µM | > 10 µM | 5 to 10 µM | 5 to 10 µM | > 10 µM | CCCc1ccc(-c2cnc3[nH]cc(C(=O)c4c(F)ccc(NS(=O)(=O)CCC)c4F)c3c2)cn1 [P-2224, Propane-1-sulfonic acid {2,4-difluoro-3-[5-(6-propyl-pyridin-3-yl)-1H-pyrrolo[2,3-b]pyridine-3-carbonyl]-phenyl}-amide] |
| > 10 µM | > 10 µM | > 10 µM | 5 to 10 µM | > 10 µM | N#Cc1cnc2[nH]cc(C(=O)c3cccc(NS(=O)(=O)c4cccc(F)c4)c3F)c2c1 [P-2053, N-[3-(5-Cyano-1H-pyrrolo[2,3-b]pyridine-3-carbonyl)-2-fluoro-phenyl]-3-fluoro-benzenesulfonamide] |
| > 10 µM | > 10 µM | 5 to 10 µM | < 5 µM | 5 to 10 µM | CCCS(=O)(=O)Nc1ccc(F)c(C(=O)c2c[nH]c3ncc(-c4cn[nH]c4)cc23)c1F [P-2174, Propane-1-sulfonic acid {2,4-difluoro-3-[5-(1H-pyrazol-4-yl)-1H-pyrrolo[2,3-b]pyridine-3-carbonyl]-phenyl}-amide] |
